Data on 22 compounds can be found in patent publication US10435399B2, “HDAC6 inhibitory heterocyclic compound” (TAKEDA PHARMACEUTICAL COMPANY LIMITED, priority 2017, dated 2019).

In one assay the target is T1, HDAC6 enzyme (Homo sapiens, UniProt Q9UBN7).
T1 construct: transducing full length HDAC6 gene into Sf-9 insect cells; GST; purchased SignalChem; host or cells: Sf-9 insect cells
T1 sequence (Q9UBN7 1-1215): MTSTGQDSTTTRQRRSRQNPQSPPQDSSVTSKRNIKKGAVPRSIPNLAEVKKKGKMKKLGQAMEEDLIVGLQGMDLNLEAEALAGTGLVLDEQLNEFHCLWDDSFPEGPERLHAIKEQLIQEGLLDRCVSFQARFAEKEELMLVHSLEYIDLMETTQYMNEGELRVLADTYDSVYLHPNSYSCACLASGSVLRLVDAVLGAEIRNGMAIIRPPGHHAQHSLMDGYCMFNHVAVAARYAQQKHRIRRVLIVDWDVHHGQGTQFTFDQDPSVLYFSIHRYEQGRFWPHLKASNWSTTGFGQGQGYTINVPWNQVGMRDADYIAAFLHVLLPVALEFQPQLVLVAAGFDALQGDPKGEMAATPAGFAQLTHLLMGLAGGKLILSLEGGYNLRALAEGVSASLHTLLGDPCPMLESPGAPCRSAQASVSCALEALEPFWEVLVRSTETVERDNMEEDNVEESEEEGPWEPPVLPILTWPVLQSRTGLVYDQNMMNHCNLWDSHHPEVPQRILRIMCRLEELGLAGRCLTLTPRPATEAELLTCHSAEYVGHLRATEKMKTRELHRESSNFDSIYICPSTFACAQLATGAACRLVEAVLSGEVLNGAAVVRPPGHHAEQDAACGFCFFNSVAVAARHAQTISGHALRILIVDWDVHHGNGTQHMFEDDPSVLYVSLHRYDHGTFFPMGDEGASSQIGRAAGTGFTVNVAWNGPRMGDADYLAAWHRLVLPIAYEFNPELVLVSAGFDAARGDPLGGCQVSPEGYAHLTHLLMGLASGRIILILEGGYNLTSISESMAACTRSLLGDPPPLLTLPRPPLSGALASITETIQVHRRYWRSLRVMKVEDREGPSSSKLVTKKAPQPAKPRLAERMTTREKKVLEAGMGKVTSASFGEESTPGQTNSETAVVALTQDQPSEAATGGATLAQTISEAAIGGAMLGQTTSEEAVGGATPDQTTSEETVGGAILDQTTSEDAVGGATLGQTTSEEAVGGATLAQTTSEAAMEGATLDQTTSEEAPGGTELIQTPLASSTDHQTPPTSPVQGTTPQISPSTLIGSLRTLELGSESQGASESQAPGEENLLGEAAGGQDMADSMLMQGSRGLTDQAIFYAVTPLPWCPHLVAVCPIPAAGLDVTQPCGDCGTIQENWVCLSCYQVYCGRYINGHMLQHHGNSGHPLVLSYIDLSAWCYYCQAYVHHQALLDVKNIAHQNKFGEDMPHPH
In words: HDAC6 enzyme inhibitory activity (HDAC-Glo I/II Assay kit). The following applies: 10 μM; wells without enzyme = 100% inhibition. Format: biochemical. The method, boiled down:
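Test compound is preincubated 60 min at RT with full-length insect-cell HDAC6 in Tris-HCl pH 7.5 with 135 mM NaCl and 1 mM MgCl2. A 20 min room-temperature HDAC-Glo reaction follows, with luminescent read-out.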
For the compound `O=C1c2cc(-c3nnc(C(F)F)o3)ccc2CN1N1CCC(F)(F)CC1c1ccc(F)cc1` (stereo not drawn) [Example 572, 2-(4,4-difluoro-2-(4-fluorophenyl)piperidin-1-yl)-6-(5-(difluoromethyl)-1,3,4-oxadiazol-2-yl)isoindolin-1-one (optical isomer)], the “HDAC6 inhibitory rate (%) (10 μM)” value was 100%. Same read-out and setting: with `O=C1c2cc(-c3nnc(C(F)F)o3)ccc2CN1N1CCC(F)(F)CC1c1ccc(F)cc1` (stereo not drawn) [Example 573, 2-(4,4-difluoro-2-(4-fluorophenyl)piperidin-1-yl)-6-(5-(difluoromethyl)-1,3,4-oxadiazol-2-yl)isoindolin-1-one (optical isomer)] the figure was 99%. The same measure, in the same setting: with `O=C(NCC(F)(F)F)C1CC(F)(F)CCN1N1Cc2ccc(-c3nnc(C(F)F)o3)cc2C1=O` (stereo not drawn) [Example 579, 1-(6-(5-(difluoromethyl)-1,3,4-oxadiazol-2-yl)-1-oxo-1,3-dihydro-2H-isoindol-2-yl)-4,4-difluoro-N-(2,2,2-trifluoroethyl)piperidine-2-carboxamide (Optical Isomer)] the figure was 100%.

Take `O=C(NCC(F)(F)F)C1CC(F)(F)CCN1N1Cc2ccc(-c3nnc(C(F)F)o3)cc2C1=O` (stereo not drawn) [Example 580, 1-(6-(5-(difluoromethyl)-1,3,4-oxadiazol-2-yl)-1-oxo-1,3-dihydro-2H-isoindol-2-yl)-4,4-difluoro-N-(2,2,2-trifluoroethyl)piperidine-2-carboxamide (Optical Isomer)]: the “HDAC6 inhibitory rate (%) (10 μM)” value amounted to 100%. The same measure, in the same setting: with `O=C1c2cc(-c3nnc(C(F)F)o3)ccc2CN1N1CCCC1c1ccccn1` (stereo not drawn) [Example 596, 6-(5-(difluoromethyl)-1,3,4-oxadiazol-2-yl)-2-(2-(pyridin-2-yl)pyrrolidin-1-yl)isoindolin-1-one (optical isomer)] the figure was 100%; with `O=C1c2cc(-c3nnc(C(F)F)o3)ccc2CN1N1CCCC1c1ccccn1` (stereo not drawn) [Example 597, 6-(5-(difluoromethyl)-1,3,4-oxadiazol-2-yl)-2-(2-(pyridin-2-yl)pyrrolidin-1-yl)isoindolin-1-one (optical isomer)], 99%.

The same assay, now with this note: 10 μM; wells without enzyme = 100% inhibition; read-out: HDAC6 inhibitory rate (%) (10 μM).
In the case of `Cn1cc(C(=O)NCC(F)(F)F)c(N2Cc3ccc(-c4nnc(C(F)F)o4)cc3C2=O)n1` [Example 567, 3-(6-(5-(difluoromethyl)-1,3,4-oxadiazol-2-yl)-1-oxo-1,3-dihydro-2H-isoindol-2-yl)-1-methyl-N-(2,2,2-trifluoroethyl)-1H-pyrazole-4-carboxamide], the inhibition at 10 µM is 95%.

Regarding `Cn1cc(C(=O)NCC2CC2)c(N2Cc3ccc(-c4nnc(C(F)F)o4)cc3C2=O)n1` [Example 568, N-(cyclopropylmethyl)-3-(6-(5-(difluoromethyl)-1,3,4-oxadiazol-2-yl)-1-oxo-1,3-dihydro-2H-isoindol-2-yl)-1-methyl-1H-pyrazole-4-carboxamide], the inhibition at 10 µM worked out at 96%. Same read-out and setting: with `Cn1cc(C(=O)N2CCC(F)(F)CC2)c(N2Cc3ccc(-c4nnc(C(F)F)o4)cc3C2=O)n1` [Example 569, 6-(5-(difluoromethyl)-1,3,4-oxadiazol-2-yl)-2-(4-((4,4-difluoropiperidin-1-yl)carbonyl)-1-methyl-1H-pyrazol-3-yl)isoindolin-1-one] the figure was 99%; with `O=C1c2cc(-c3nnc(C(F)F)o3)ccc2CN1N1CCCC1c1ccccn1` (stereo not shown) [Example 570, 6-(5-(difluoromethyl)-1,3,4-oxadiazol-2-yl)-2-(2-(pyridin-2-yl)pyrrolidin-1-yl)isoindolin-1-one], 100%. `O=C1c2cc(-c3nnc(C(F)F)o3)ccc2CN1c1cccn2cc(C(F)(F)F)nc12` [Example 571, 6-(5-(difluoromethyl)-1,3,4-oxadiazol-2-yl)-2-(2-(trifluoromethyl)imidazo[1,2-a]pyridin-8-yl)isoindolin-1-one]: the inhibition at 10 µM was 73%. Still for that read-out and setting: the figure for `O=C1c2cc(-c3nnc(C(F)F)o3)ccc2CN1[C@@H]1CCCC(F)(F)[C@H]1NC(=O)C(F)(F)C(F)F` [Example 581, N-((1S,6R)-6-(6-(5-(difluoromethyl)-1,3,4-oxadiazol-2-yl)-1-oxo-1,3-dihydro-2H-isoindol-2-yl)-2,2-difluorocyclohexyl)-2,2,3,3-tetrafluoropropanamide] is 99%.

`CC(C)(CF)OC(=O)N[C@H]1[C@H](N2Cc3ccc(-c4nnc(C(F)F)o4)cc3C2=O)CCCC1(F)F` [Example 582, 1-fluoro-2-methylpropan-2-yl ((1S,6R)-6-(6-(5-(difluoromethyl)-1,3,4-oxadiazol-2-yl)-1-oxo-1,3-dihydro-2H-isoindol-2-yl)-2,2-difluorocyclohexyl)carbamate]: the inhibition at 10 µM worked out at 100%. As to `CC(C)(OC(=O)N[C@H]1[C@H](N2Cc3ccc(-c4nnc(C(F)F)o4)cc3C2=O)CCCC1(F)F)C(F)F` [Example 583, 1,1-difluoro-2-methylpropan-2-yl ((1S,6R)-6-(6-(5-(difluoromethyl)-1,3,4-oxadiazol-2-yl)-1-oxo-1,3-dihydro-2H-isoindol-2-yl)-2,2-difluorocyclohexyl)carbamate], the inhibition at 10 µM stood at 99%. On the same count and under the same terms, with `Cn1cc(C(=O)c2ccccc2)c(N2Cc3ccc(-c4nnc(C(F)F)o4)cc3C2=O)n1` [Example 592, 2-(4-benzoyl-1-methyl-1H-pyrazol-3-yl)-6-(5-(difluoromethyl)-1,3,4-oxadiazol-2-yl)isoindolin-1-one] the figure was 99%; with `O=C1c2cc(-c3nnc(C(F)F)o3)cnc2CN1[C@@H]1CCCC[C@H]1Oc1ccccn1` [Example 593, 3-(5-(difluoromethyl)-1,3,4-oxadiazol-2-yl)-6-((1R,2R)-2-(pyridin-2-yloxy)cyclohexyl)-6,7-dihydro-5H-pyrrolo[3,4-b]pyridin-5-one], 100%.

Consider `O=C1c2cc(-c3nnc(C(F)F)o3)ccc2CN1N1CCCCC1c1ccc(F)cc1` (stereo not shown) [Example 594, 6-(5-(difluoromethyl)-1,3,4-oxadiazol-2-yl)-2-(2-(4-fluorophenyl)piperidin-1-yl)isoindolin-1-one], for which the inhibition at 10 µM is 101%. Still for that read-out and setting: with `O=C1c2cc(-c3nnc(C(F)F)o3)ccc2CN1N1CCC(F)(F)CC1c1ccc(F)cn1` (stereo not shown) [Example 595, 2-(4,4-difluoro-2-(5-fluoropyridin-2-yl)piperidin-1-yl)-6-(5-(difluoromethyl)-1,3,4-oxadiazol-2-yl)isoindolin-1-one] the figure was 100%; with `O=C1c2cc(-c3nnc(C(F)F)o3)cnc2CN1[C@@H]1CCCC(F)(F)[C@H]1NC(=O)C(F)(F)C(F)(F)F` [Example 599, N-((1S,6R)-6-(3-(5-(difluoromethyl)-1,3,4-oxadiazol-2-yl)-5-oxo-5,7-dihydro-6H-pyrrolo[3,4-b]pyridin-6-yl)-2,2-difluorocyclohexyl)-2,2,3,3,3-pentafluoropropanamide], 99%; with `Cc1ccc(C2CC(F)(F)CCN2N2Cc3ccc(-c4nnc(C(F)F)o4)cc3C2=O)nc1` (stereo not shown) [Example 600, 6-(5-(difluoromethyl)-1,3,4-oxadiazol-2-yl)-2-(4,4-difluoro-2-(5-methylpyridin-2-yl)piperidin-1-yl)isoindolin-1-one], 100%. For the compound `O=C1c2cc(-c3nnc(C(F)F)o3)cnc2CN1[C@@H]1CCCC(F)(F)[C@H]1NC(=O)C(F)(F)C(F)F` [Example 601, N-((1S,6R)-6-(3-(5-(difluoromethyl)-1,3,4-oxadiazol-2-yl)-5-oxo-5,7-dihydro-6H-pyrrolo[3,4-b]pyridin-6-yl)-2,2-difluorocyclohexyl)-2,2,3,3-tetrafluoropropanamide], the inhibition at 10 µM came to 99%.

On to `O=C1c2cc(-c3nnc(C(F)F)o3)ccc2CN1N1CCCCC1c1cncc(F)c1` (stereo not shown) [Example 602, 6-(5-(difluoromethyl)-1,3,4-oxadiazol-2-yl)-2-(2-(5-fluoropyridin-3-yl)piperidin-1-yl)isoindolin-1-one], for which the inhibition at 10 µM was determined as 101%.
